Measurements as given in article PMC12238723, “Phase I Clinical Trial of CVL218, a Novel PARP1/2 Inhibitor, in Patients with Advanced Solid Tumors” (MedComm, 2025).

Tests used:
[1] = Plasma PK after multiple oral doses (Cycle 1 Day 28); format: in vivo, patients
Protocol: The period during which patients received a single dose is designated as cycle 0 (C0), lasting 72 h. After this period, patients begin multiple dosing, referred to as cycle 1 (C1). An initial accelerated titration design was employed for the three lowest dose groups, and the “3+3” design was applied starting with the 300 mg BID cohort. […] Single-dose and multiple-dose PK parameters included C max, T max, elimination half-life (T 1/2), AUC0- t , AUC0-inf, oral clearance (CL/F), and apparent volume of distribution (V z/F) for CVL218. Tumor response was assessed per RECIST 1.1. ORR was defined as proportion of patients with a CR or PR on at least one visit, while DCR was defined as proportion of patients with a CR or PR or SD. PFS was defined as the time from the first dose of either drug to investigator assessed radiologic PD or to death of any cause. PFS would be censored at the time of last tumor assessment. Subjects who received at least one dose of CVL218 with postadministration safety records were included in safety analysis set. Subjects who received at least one dose of CVL218 with at least one evaluable PK parameter were included in PK analysis set. Per-protocol set were used for efficacy analysis. Descriptive statistics of safety were presented per CTCAE v5.0. The PK parameters T max and T 1/2 were shown as the median (min, max) and mean ± SD, respectively. A two-sided p < 0.05 was considered to indicate statistical significance. Statistical analysis was performed by using GraphPad prism 8.0.2 and R-4.3.3.

[2] = design: method as in PMID 36283983; settings: cited from earlier work
[3] = multiple doses C1D28, 50mg BID, n 1
[4] = multiple doses C1D28, 100mg BID, n 1
[5] = multiple doses C1D28, 200mg BID, n 1
[6] = multiple doses C1D28, 350mg BID, n 4
[7] = multiple doses C1D28, 500mg BID, n 4
[8] = multiple doses C1D28, 600mg BID, n 4
[9] = multiple doses C1D28, 700mg BID, n 6
[10] = multiple doses C1D28, 850mg BID, n 5

CNCc1ccc(-c2cc3cc(F)cc(C(N)=O)c3o2)cc1.Cl [CVL218]
AUC0-24, Geometric Mean [1, 3]: 0.0709 µg·h/mL
AUC0-t, Geometric Mean [1, 3]: 0.0779 µg·h/mL
AUC_TAU, Mean [1, 3]: 0.0709 µg·h/mL
Cavgss, Mean [1, 3]: 0.00591 µg/mL
Cl/F, Geometric Mean [1, 3]: 705000.0 mL/h
Cmax, Geometric Mean [1, 3]: 0.0156 µg/mL
Cminss, Mean [1, 3]: 0 µg/mL
Vz/F, Geometric Mean [1, 3]: 6870000.0 mL
AUC0-24, Geometric Mean [1, 4]: 0.822 µg·h/mL
AUC0-t, Geometric Mean [1, 4]: 1.93 µg·h/mL
AUC_TAU, Mean [1, 4]: 0.822 µg·h/mL
Cavgss, Mean [1, 4]: 0.0685 µg/mL
Cl/F, Geometric Mean [1, 4]: 122000.0 mL/h
Cmax, Geometric Mean [1, 4]: 0.148 µg/mL
Cminss, Mean [1, 4]: 0.038 µg/mL
Vz/F, Geometric Mean [1, 4]: 1750000.0 mL
AUC0-24, Geometric Mean [1, 5]: 0.808 µg·h/mL
AUC0-t, Geometric Mean [1, 5]: 1.36 µg·h/mL
AUC_TAU, Mean [1, 5]: 0.808 µg·h/mL
Cavgss, Mean [1, 5]: 0.0673 µg/mL
Cl/F, Geometric Mean [1, 5]: 248000.0 mL/h
Cmax, Geometric Mean [1, 5]: 0.156 µg/mL
Cminss, Mean [1, 5]: 0.0286 µg/mL
Vz/F, Geometric Mean [1, 5]: 4780000.0 mL
AUC0-24, Geometric Mean [1, 6]: 2.23 µg·h/mL
AUC0-inf, Geometric Mean [1, 6]: 5.86 µg·h/mL
AUC0-t, Geometric Mean [1, 6]: 4.75 µg·h/mL
AUC_TAU, Mean [1, 6]: 2.17 µg·h/mL
Cavgss, Mean [1, 6]: 0.181 µg/mL
Cl/F, Geometric Mean [1, 6]: 157000.0 mL/h
Cmax, Geometric Mean [1, 6]: 0.313 µg/mL
Cminss, Mean [1, 6]: 0.0722 µg/mL
T1/2, Mean [1, 6]: 5.4 h
Vz/F, Geometric Mean [1, 6]: 1400000.0 mL
AUC0-24, Geometric Mean [1, 7]: 3.21 µg·h/mL
AUC0-inf, Geometric Mean [1, 7]: 6.92 µg·h/mL
AUC0-t, Geometric Mean [1, 7]: 6.83 µg·h/mL
AUC_TAU, Mean [1, 7]: 3.87 µg·h/mL
Cavgss, Mean [1, 7]: 0.323 µg/mL
Cl/F, Geometric Mean [1, 7]: 158500.0 mL/h
Cmax, Geometric Mean [1, 7]: 0.5625 µg/mL
Cminss, Mean [1, 7]: 0.177 µg/mL
T1/2, Mean [1, 7]: 4.1 h
Vz/F, Geometric Mean [1, 7]: 1380000.0 mL
AUC0-24, Geometric Mean [1, 8]: 1.88 µg·h/mL
AUC0-inf, Geometric Mean [1, 8]: 7.7 µg·h/mL
AUC0-t, Geometric Mean [1, 8]: 2.56 µg·h/mL
AUC_TAU, Mean [1, 8]: 2.81 µg·h/mL
Cavgss, Mean [1, 8]: 0.234 µg/mL
Cl/F, Geometric Mean [1, 8]: 318000.0 mL/h
Cmax, Geometric Mean [1, 8]: 0.311 µg/mL
Cminss, Mean [1, 8]: 0.118 µg/mL
T1/2, Mean [1, 8]: 5.1 h
Vz/F, Geometric Mean [1, 8]: 2440000.0 mL
AUC0-24, Geometric Mean [1, 9]: 3.83 µg·h/mL
AUC0-inf, Geometric Mean [1, 9]: 4.17 µg·h/mL
AUC0-t, Geometric Mean [1, 9]: 3.83 µg·h/mL
AUC_TAU, Mean [1, 9]: 4.45 µg·h/mL
Cavgss, Mean [1, 9]: 0.371 µg/mL
Cl/F, Geometric Mean [1, 9]: 183000.0 mL/h
Cmax, Geometric Mean [1, 9]: 0.66 µg/mL
Cminss, Mean [1, 9]: 0.127 µg/mL
T1/2, Mean [1, 9]: 3.9 h
Vz/F, Geometric Mean [1, 9]: 1090000.0 mL
AUC0-24, Geometric Mean [1, 10]: 5.15 µg·h/mL
AUC0-inf, Geometric Mean [1, 10]: 2.94 µg·h/mL
AUC0-t, Geometric Mean [1, 10]: 5.15 µg·h/mL
AUC_TAU, Mean [1, 10]: 5.15 µg·h/mL
Cavgss, Mean [1, 10]: 0.429 µg/mL
Cl/F, Geometric Mean [1, 10]: 230000.0 mL/h
Cmax, Geometric Mean [1, 10]: 0.776 µg/mL
Cminss, Mean [1, 10]: 0.194 µg/mL
T1/2, Mean [1, 10]: 4.4 h
Vz/F, Geometric Mean [1, 10]: 1532500.0 mL
median Tmax ([1]; multiple doses, range over cohorts): 1 to 3 h
mean half-life ([1]; multiple oral doses, range over cohorts): 3.9 to 5.4 h
median Tmax ([1]; recommended dose of 700 mg BID): 2 h
blood–brain barrier crossing [2]: readily crosses the blood–brain barrier
